Design in all cases: species or system mice
Series [1] in a line: In vivo antitumor assay, P388/ADR(iv). Conditions: mouse, in vivo, iv, drug iv. The text has this:
(§1) Mice: Inbred: C3H/He and NCR-nu; and Hybrids: B6D2F1 (C57BL/6 females×DBA/2 males, CD2F1 (Balb/c females×DBS/2 males) and B6C3fl (C57BL/6×C3H) were bred at Wayne State University from strains obtained from the Frederick Cancer Research Facility, Frederick, Maryland or purchased from commercial suppliers.
(§2) Tumors: Murine Tumor: P388 and an adriamycin-resistant (ADR) subline P388/ADR leukemia and the following transplantable solid tumors of mice were used for in vivo testing: B16 melanoma (B16), pancreatic ductal adenocarcinoma No. 03 (Pane 03), colon adenocarcinoma No. 38 (colo 38), lung carcinoma No. 12 (LC 12), mammary ductal adenocarcinoma No. 16/C (Mam16C) and an adriamycin-resistant subline Mam16C/ADR. Human tumor: A single human tumor, mammary carcinoma MX-1 was used for in vivo testing. All tumors are in the Developmental Therapeutics Program frozen tumor respository, maintained by the Biological Testing Branch, Frederick Maryland. Each has a detailed description, code identification number, and list of references at the National Tumor Repository. Murine tumors were maintained in the mouse strain of origin and were transplanted in the appropriate F1 hydrid (or the strain of origin) for therapy trials. Human mammary carcinoma MX-1 (MX1) was maintained as a subcutaneous implant in either athymic Swiss (Cr: NIH(S)-nu) or athymic random bred (NCR-nu) mice and transplanted in NCR-nu for therapy trials.
(§3) For P388 and P388/ADR leukemia studies the tumor cells were implanted either interperitoneally (IP) or intravenously (IV) on day zero and treatment was started on day one. For B16 melanoma (B16) studies, the tumor cells were implanted IP on day zero and treatment was started on day one. Titered controls were also included to facilitate the calculation of tumor cell kill. For mammary carcinoma MX-1 studies, tumors were implanted with 1) subcutaneously (sc) (14-mg fragment of sc donor tumor) in the axillary region or 2) under the subrenal capsule (SRC) (10×10×10 ocular micrometer unit fragment of sc donor tumor). Treatment started on the day after subrenal capsule tumor implant or when the subcutaneous tumor implant had reached 100-700 mg.
(§4) Quantitative end points used to assess antitumor activity included % Increased Life Span (% ILS), Tumor Cell Kill (Log10 kill), and Tumor Growth Inhibition (T/C). Long Term Survivors (45 or 60 day) were excluded from calculations of %ILS and Tumor Cell Kill.
(§5) Endpoints were calculated as follows: [formula] where Dt is the median day of death for treated and Dc is the median day of death for control groups. A % ILS ≥20 or ≥25 for P388 and B16 intraperitoneal models, respectively, is indicative of a significant degree of antitumor activity. A % ILS ≥75 or ≥50 for P388 and B16 intraperitoneal models, , respectively, is indicative of a high degree of antitumor activity and is the level used by National Cancer Institute to justify further development if other requirements are met (termed DN-2 level activity). Minimum quantitative activity limits for additional P388 models (e.g. P388/ADR and P388, IV) have not been defined. However, the activity limits specified for the intraperitoneal models may be applied as in the majority of instances the intraperitoneal models are found to be signficantly less challenging.
(§6) The log10 cell kill was calculated from the following formula: [formula] where T-C is the tumor difference in the median day of death between the treated (T) and the control (C) groups and Td is the tumor doubling time (in days), the latter estimated from the best fit straight line from a log-linear growth plot of the control-group tumors in exponential growth. The conversion of the T-C values to log10 cell kill is possible because the Td for tumors regrowing post-treatment approximated the Td values of the tumors in untreated control mice.

Series [2] concerns adriamycin-resistant (ADR) subline P388/ADR leukemia. Briefly: In vivo antitumor assay, P388/ADR(iv). Particulars: drug iv.
Excerpt: as §1, §2, §3, §4, §5, §6

In series [3] the test system is mammary ductal adenocarcinoma No. 16/C (Mam16C). Briefly: In vivo antitumor assay, Mam16C(sc). Conditions: drug iv.
Excerpt: as §1, §2
(§7) Chemotherapy: For pancreatic ductal adenocarcinoma No. 3, colon adenocarcinoma No. 38 (colo 38), lung carcinoma No. 12 LC 12) and both adriamycin-sensitive (RP) and-resistant (ADR) mammary ductal adenocarcinoma No. 16 (Mam16) tumors, bilateral tumor implants were used to help ensure a more uniform tumor burden per mouse (thus reducing the requirement for greater numbers of mice per group). The animals necessary to begin an experiment were pooled, implanted bilaterally s.c. on day zero with 30-60 mg tumor fragments using a 12-gauge trocar, and again pooled before randomization to the various treatment and control groups. Chemotherapy was started within three days after tumor implantation while the number of cells per mouse was relatively small (1×10^7 -1×10^8 cells).
as §4, §6
(§8) Tumors were measured with a caliper once or twice weekly (as needed) until either tumors exceeded 1600 mg or cure was assured. […] When the control group tumors reached approximately 750-1500 mg in size (median of group), the median tumor weight of each group was determined (including zeros). […] The % T/C was calculated from the following formula for solid murine tumor models: [formula] where T and C are median tumor weights of the treatment and control groups, respectively. […]

A short description of series [4]: In vivo antitumor assay, Mam16C(sc). Particulars: mouse, in vivo, drug iv, qd 1-4, exp 1132.
Excerpt: as §1, §2, §7, §4, §6, §8

This is an account of results in patent publication US5334595A, “Pyrazoloquinolones as anticancer agents” (priority 1992, dated 1994).

Each structure is given as a SMILES string.

As for `Cc1cc(-c2c(F)cc3c4nn(CCN(C)C)c(=O)c-4cn(C4CC4)c3c2F)cc(C)n1.O=C(O)/C=C/C(=O)O` [Example 1, 5-Cyclopropyl-6,8-difluoro-2,5-dihydro-2-[2-(dimethylamino)-ethyl]-7-(2,6-dimethyl-4-pyridinyl)-3H-pyrazolo[4,3-c]quinolin-3-one (E)-2-butendioate (1:1)], the MTD in series [1] (qd 1-3, exp 1149B) turned out to be 52 mg/kg; in series [1] (qd 1-5, exp 1073B) it was 48 mg/kg; in series [4] it was 43 mg/kg. The ILS % in series [2] (qd 1-3, exp 1149B) was 27%; in series [2] (qd 1-5, exp 1073B), 14.3%. For the same compound, the “Log Kill” value in series [2] (qd 1-3, exp 1149B) is 1.3; in series [2] (qd 1-5, exp 1073B), 0.93; in series [3] (qd 1,3,5, exp 1142A), 1.9; in series [3] (qd 1-4, exp 1132) it was 1.3. The T/C % in series [3] (qd 1,3,5, exp 1142A) is 18%; in series [3] (qd 1-4, exp 1132), 7%.
